Data as given in article PMC10063609, “Discovery of novel cardiac troponin activators using fluorescence polarization-based high throughput screening assays” (Scientific Reports, 2023).
Counter-ions that a name gives are not always drawn. *1 amine or outer side, *2 acyl side, *3 side chain or, on linkers, in order; H or OH if unused. Where a SMILES comes first, the peptide text is derived from it. Bridges are numbered along the chain shown (N, C = ends). [ ]: non-standard residue; d: D form. The star is where a group is joined. hTyr(3S-OH,4S-OH,3'-OSO3H) = N[C@H](C(=O)O)[C@H](O)[C@@H](O)c1ccc(O)c(OS(=O)(=O)O)c1; Orn(4R-OH,5R-OH) = O=C([C@H](C[C@@H](O)[C@@H](O)N[*:3])N[*:1])[*:2]; Pro(3S-OH,4S-Me) = C[C@H]1CN[C@H](C(=O)O)[C@H]1O; X1 = CCCCCOc1ccc(-c2cc(-c3ccc(C(=O)*)cc3)no2)cc1; Gln(3R-OH) = NC(=O)C[C@@H](O)[C@H](N)C(=O)O; Hyp = O=C(O)[C@@H]1C[C@@H](O)CN1

Molecular target: interaction between cTnC and switch peptide of cTnI (cTnISP) (Homo sapiens, UniProt P63316)
Test: Fluorescence polarization HTS and dose-response, cTnC/FAM-cTnISP
Assay type: binding
Conditions: cTnISP primary screen, single concentration 50 μmol/L
Experimental: Each compound was tested at a concentration of 50 μmol/L and 10 μmol/L for the cTnISP and cTnIAR screen, respectively. Hits were defined as compounds that changed the average FP value more than five-times the standard deviation (SD) (Fig. 1d, red lines). Moreover, compounds that either increased or decreased the total fluorescence intensity (FI) more than five-times the SD were removed from further analysis, indicating either compound aggregation or unspecific interactions with the fluorophore or protein complex.
Libraries were reformatted from 96-well plates to Greiner 384-well black plates using a GILSON PipetMax. The plates were sealed with adhesive foil and stored at − 20 °C until further use. […] A total of 40 nL of 10 mmol/L compound stocks were transferred to each well using a Mosquito liquid handler system (final DMSO concentration of 0.1% (v/v)). The plates were incubated in the dark for 30 min at 25 °C, and the fluorescence polarization from each well was measured using a ClarioStar Plate reader with appropriate excitation and emission filter settings. Dose–response curves were constructed by serial dilution of compounds in DMSO and adding a fixed volume to a mixture of peptide and cTnC.
Fluorescence polarization dose–response and binding experiments were performed in Greiner 384-well black plates in assay buffer (20 mmol/L Tris–HCl pH 7, 100 mmol/L NaCl, 1 mmol/L CaCl2, 1 mmol/L DTT) at 25 °C.

| SMILES | FP (mP) (LOPAC 1280 library) | FP (mP) (TOCRIScreen library) | FP (mP) (ENZO Screenwell library) |
| --- | --- | --- | --- |
| CCCCCCCCCCCCCCCC(=O)OC(CC(=O)O)C[N+](C)(C)C.[Cl-] (racemic) [Palmitoyl-DL-Carnitine chloride] | 109.8 | – | – |
| CCN(CC)CCCCN1c2ccccc2Oc2ccc(Cl)cc21.Cl [10-DEBC hydrochloride] | – | 82.8 | – |
| CCN1CCN(Cc2ccc(-c3cc4c(N[C@H](C)c5ccccc5)ncnc4[nH]3)cc2)CC1 [AEE 788] | – | 77.8 | – |
| Cn1c(NC[C@@H](N)Cc2ccccc2)nc(-c2ccncc2)c(-c2ccc3ccccc3c2)c1=O [AMG 548] | – | 90 | – |
| COc1cc(N2CCN(C)CC2)ccc1Nc1nccc(-c2cn(C)c3cnccc23)n1 [AZ 191] | 88.5 | 83.4 | – |
| Cc1cc(N2C[C@@H](C)N[C@@H](C)C2)ncc1-c1ccc(-c2nc3c(ccn3C)c(=O)[nH]2)cc1 [AZ 6102] | – | 83.4 | – |
| CCOC(=O)c1c(CSc2ccccc2)n(C)c2cc(Br)c(O)c(CN(C)C)c12.Cl [Arbidol hydrochloride] | 89.4 | – | – |
| O=C1CCc2ccc(OCCCCN3CCN(c4cccc(Cl)c4Cl)CC3)cc2N1 [Aripiprazole] | – | 86 | – |
| Cc1c(NC(=O)OC[C@@H]2COCCN2)cn2ncnc(Nc3ccc4c(cnn4Cc4cccc(F)c4)c3)c12.Cl.Cl [BMS 599626 dihydrochloride] | – | 88.2 | – |
| CC(C)c1cnn2c(NCc3ccccc3)cc(NCCCCCCN)nc12.Cl.Cl [BS 181 dihydrochloride] | – | 73.2 | – |
| O[C@@H](CN1CCNCC1)Cn1c2ccc(Br)cc2c2cc(Br)ccc21 [Bax channel blocker] | – | 77.1 | – |
| Cc1c(-c2ccc(O)cc2)n(Cc2ccc(OCCN3CCCCCC3)cc2)c2ccc(O)cc12 [Bazedoxifene acetate] | – | 74.5 | – |
| c1ccc2cc(-c3ncc[nH]3)ccc2c1 [Benazoline oxalate] | 83.7 | – | – |
| CC(C)COCC(CN(Cc1ccccc1)c1ccccc1)N1CCCC1 (stereo not drawn) [Bepridil hydrochloride] | – | 87 | – |
| COc1cc2nc(N3CCC(N4CCCCC4)CC3)nc(NC3CCCCCC3)c2cc1OC.Cl.Cl [C 021 dihydrochloride] | – | 87.1 | – |
| OCCNC1CCCc2c1[nH]c1ccc(-c3ccccc3)cc21 (stereo not drawn) [CASIN] | – | 80.4 | – |
| Cc1cc(CN2CCN(c3c(Br)cnc4nc(-c5ccc(N6CCN(C)CC6)cc5)[nH]c34)CC2)no1 [CCT 137690] | 87 | 83.6 | – |
| CCCNc1ccc2ncc(-c3ccc4[nH]ncc4c3)n2n1.O=C(O)C(F)(F)F [CHR 6494 trifluoroacetate] | – | 81.9 | – |
| Br.Cc1cc2nc(NCCCO)n(CC(=O)c3cc(C(C)(C)C)c(O)c(C(C)(C)C)c3)c2cc1C [CID2858522] | 89.6 | – | – |
| Cc1cc(CN)cc(C)c1NC(=O)c1ccc(-c2cc(Cl)ccc2Cl)o1 [CYM50358] | 84.1 | – | – |

| SMILES | FP (mP) (LOPAC 1280 library) | FP (mP) (TOCRIScreen library) | FP (mP) (ENZO Screenwell library) |
| --- | --- | --- | --- |
| Clc1ccc(C(c2ccc(Cl)cc2)n2cc[n+](CC(OCc3ccc(Cl)cc3Cl)c3ccc(Cl)cc3Cl)c2)cc1 (stereo not drawn) [Calmidazolium chloride] | 83.6 | – | – |
| CCCC[C@@H](C=O)NC(=O)[C@H](CC(C)C)NC(=O)OCc1ccccc1 [Calpeptin] | – | 121.8 | – |
| CN(C)CCCN1c2ccccc2Sc2ccc(Cl)cc21 [Chlorpromazine.HCl] | 91.3 | – | 88.9 |
| C[C@@H](NCCCc1cccc(C(F)(F)F)c1)c1cccc2ccccc12 [Cinacalcet.HCl] | – | – | 82.4 |
| CC(C)/N=c1\cc2n(-c3ccc(Cl)cc3)c3ccccc3nc-2cc1Nc1ccc(Cl)cc1 [Clofazimine] | – | – | 85.2 |
| CCN(CC)CCOc1ccc(C(=C(Cl)c2ccccc2)c2ccccc2)cc1 [Clomiphene Citrate] | – | – | 63.2 |
| CCN1CCN(Cc2ccc(C(=O)Nc3ccc(C)c(Oc4ccc5c(c4)CC(=O)N5)c3)cc2C(F)(F)F)CC1.Cl.Cl [DDR1-IN-1 dihydrochloride] | – | 74.4 | – |
| CN1CCN(c2ccc(/C=C(\C#N)c3ccccc3Br)cc2)CC1.Cl.Cl [DG 172 dihydrochloride] | – | 81 | – |
| c1ccc(Cn2c(-c3ccc(OC[C@H](C4CCNCC4)n4c(-c5ccccc5)nc5ccccc54)cc3)nc3ccccc32)cc1 [Deltarasin] | – | 87.7 | – |
| CCCCCCCCNC(=O)/C(C#N)=C/c1cn(CCCN(C)C)c2ccccc12 [Dynole 34-2] | – | 64.1 | – |
| CCOc1cc(C(=O)N2CCC(N3CCN(C)CC3)CC2)ccc1Nc1ncc2c(n1)N(C1CCCC1)c1ccccc1C(=O)N2C [ERK5-IN-1] | – | 64.9 | – |
| Cc1c2ccncc2c(C)c2c1[nH]c1ccccc12 [Ellipticine] | 86.1 | – | – |
| CCN(CC)CCOc1ccc(/C(=C(/Cl)c2ccccc2)c2ccccc2)cc1.Cl [Enclomiphene hydrochloride] | 78.4 | – | – |
| CCn1c(=O)c(-c2ccc(Cl)cc2Cl)cc2cnc(Nc3ccc(N4CCNCC4)c(F)c3)nc21 [FRAX 486] | – | 83.2 | – |
| OCCN1CCN(CCCN2c3ccccc3Sc3ccc(C(F)(F)F)cc32)CC1 [Fluphenazine dihydrochloride] | 87.3 | – | – |
| OCCN1CCN(CCCN2c3ccccc3Sc3ccc(C(F)(F)F)cc32)CC1 [Fluphenazine.HCl] | – | – | 76.1 |
| O=C1NCN(c2ccccc2)C12CCN(CCCC(c1ccc(F)cc1)c1ccc(F)cc1)CC2 [Fluspirilene] | 88.6 | – | – |
| CN(C(=O)CN1C(=O)COc2cc(Cl)c(Cl)cc21)[C@@H](CN1CCCC1)c1ccc(-c2cccc(C(N)=O)c2)cc1.Cl [GSK 1562590 hydrochloride] | – | 89.9 | – |
| COc1cc2ncnc(Nc3ccc(F)c(Cl)c3)c2cc1OCCCN1CCOCC1 [Gefitinib] | – | 81.8 | 83.7 |
| CCOc1cc2ncc(C#N)c(Nc3ccc(OCc4cccc(F)c4)c(Cl)c3)c2cc1NC(=O)/C=C/CN(C)C [HKI 357] | – | 73.4 | – |

| SMILES | FP (mP) (LOPAC 1280 library) | FP (mP) (TOCRIScreen library) | FP (mP) (ENZO Screenwell library) |
| --- | --- | --- | --- |
| Cc1nc(Nc2cnn(C3CCNCC3)c2)nc2c1N(C)C(=O)c1cc3ccccc3cc1N2C [HTH 01-015] | 87 | 87.1 | – |
| O=C(c1ccc(Nc2nccc(-c3cc4ccccc4s3)n2)cc1)N1CCC(N2CCCC2)CC1 [IKK 16] | – | 82 | – |
| O=C(c1ccc(Nc2nccc(-c3cc4ccccc4s3)n2)cc1)N1CCC(N2CCCC2)CC1 [IKK-16 dihydrochloride] | 84.3 | – | – |
| CCc1ccc(OCc2ccccc2C(=O)Nc2ccc3nc(C)cc(N)c3c2)cc1 [JTC 801] | – | 84.3 | – |
| O=C(O)C(O)C(O)C(=O)O.Oc1ccc2c(c1)CC[C@H](c1ccccc1)[C@@H]2c1ccc(OCCN2CCCC2)cc1 [Lasofoxifene tartrate] | 86.8 | – | – |
| N[C@@H](Cc1cc(I)c(Oc2cc(I)c(O)c(I)c2)c(I)c1)C(=O)[O-].[Na+] [Levothyroxine·Na] | – | – | 119.8 |
| CSc1ccc2c(c1)C(N1CCN(C)CC1)Cc1ccccc1S2 (stereo not drawn) [Methiothepin mesylate] | 86.5 | – | – |
| CCCCCOc1ccc(-c2cc(-c3ccc(C(=O)N[C@H]4C[C@@H](O)[C@@H](O)NC(=O)[C@@H]5[C@@H](O)[C@@H](C)CN5C(=O)[C@H]([C@H](O)CC(N)=O)NC(=O)[C@H]([C@H](O)[C@@H](O)c5ccc(O)c(OS(=O)(=O)O)c5)NC(=O)[C@@H]5C[C@@H](O)CN5C(=O)[C@H]([C@@H](C)O)NC4=O)cc3)no2)cc1 [Micafungin] (X1-[Orn(4R-OH,5R-OH)]T[Hyp][hTyr(3S-OH,4S-OH,3'-OSO3H)][Gln(3R-OH)][Pro(3S-OH,4S-Me)]; lactam 1-C) | – | – | 128.6 |
| COc1cc(N2CCC(O)CC2)ccc1Nc1cc(Nc2ccccc2S(=O)(=O)C(C)C)c2cc[nH]c2n1.Cl.Cl [Mps1-IN-1 dihydrochloride] | – | 84.6 | – |
| CC(C)[C@H]1c2ccc(F)cc2CC[C@@]1(CCN(C)CCCc1nc2ccccc2[nH]1)OC(=O)C1CC1 [NNC 55-0396] | 88.7 | – | – |
| CC(C)(Cc1ccc2ccccc2c1)NC[C@@H](O)COc1cccc(Cl)c1C#N.Cl [NPS 2143 hydrochloride] | – | 87.5 | – |
| CCN(CC)CCCC(C)Nc1nc(C)cc(Nc2ccc3nc(C)cc(N)c3c2)n1 (stereo not drawn) [NSC 23766] | – | 89.5 | – |
| Nc1ncnc2c1c(-c1cccc(OCc3ccccc3)c1)cn2C1CC(CN2CCCC2)C1 (stereo not drawn) [NVP ADW 742] | – | 68.4 | – |
| CCN(CC)CCOc1ccc(Nc2ncc3cc(-c4c(Cl)cccc4Cl)c(=O)n(C)c3n2)cc1.Cl.Cl [PD 166285 dihydrochloride] | – | 78.7 | – |
| Cn1cc(-c2[nH]c3cc(NC(=O)[C@H](N)C4CCCCC4)cc4c3c2C=NNC4=O)cn1 [PF 477736] | – | 64 | – |
| Cc1[nH]c(/C=C2\C(=O)Nc3ccc(S(=O)(=O)Cc4c(Cl)cccc4Cl)cc32)c(C)c1C(=O)N1CCC[C@@H]1CN1CCCC1 [PHA 665752] | – | 76.4 | – |
| COc1ccc(Cl)cc1NC(=O)Nc1cc(C)nc2ccccc12 [PQ 401] | – | 80.2 | – |
| OCCN1CCN(CCCN2c3ccccc3Sc3ccc(Cl)cc32)CC1 [Perphenazine] | – | – | 73.2 |
| CN1CCN(CCCN2c3ccccc3Sc3ccc(Cl)cc32)CC1 [Prochlorperazine dimaleate] | 86.2 | 78.2 | – |
| NCCOc1cc(C(=O)Nc2cc(OCCN)c3ccccc3n2)nc(C(=O)Nc2cc(OCCN)c3ccccc3n2)c1 [Pyridostatin trifluoroacetate salt] | 85.6 | – | – |
